# Test results: PMC3720542, “Population pharmacokinetics of mefloquine, piperaquine and artemether-lumefantrine in Cambodian and Tanzanian malaria patients” (Malaria Journal, 2013)
# Where “and” joins values, the source holds several entries; their conditions need not be identical. Equal entries are not always repeated. Where two headings read alike, the source gives them in different places.
# What was measured:
# [1] = cited from earlier work
# [2] = Population pharmacokinetic analysis (NONMEM) of artemether-lumefantrine and metabolites in Tanzanian malaria patients (Kibaoni); format: in vivo, human
# Description: Three studies have been conducted, one in Tanzania and two in Cambodia. The study profiles are described in Figure 1. The first study was performed during March to May 2008 at the Kibaoni Health Centre, Kilombero district, Morogoro region, Tanzania. […] Six AM-LF (Coartem®, Novartis Pharma, Switzerland) doses were administered at time 0, 8, […] according to body weight (see Table 1); patients were either admitted for three days or asked to come back to the health facility for each drug administration. Mothers of breastfed patients were encouraged to feed their children and patients admitted were provided with food. Patients who reported that they have not eaten within two hours to prior dose intake were instructed to eat as soon as possible. Patients were seen by the clinical officer on days 0, 1, 2, 3, 7, 14, 28, and 42. A blood sample for pharmacokinetic measurement was taken at baseline (pre-dose on day 0) and on days 1, 2, and 7 at pre-defined random times after the last dosing. At each visit, a filter paper sample and a thin and thick smear were taken, in addition to axillary temperature, respiratory rate and haemoglobin measurements (only on days 0, 28 and 42) as well as evaluation of symptoms (e.g. headache, vomiting, and diarrhea). The exact dose and time of last drug intake, body weight, height, age, sex, food intake and concomitant medications were carefully recorded. If patients suffered from concomitant illnesses they were provided with additional treatment (paracetamol, mebendazole, metronidazole, cloxacillin, amoxicillin). Samples of 2 ml of venous blood were collected on an EDTA Vacutainer and kept on ice for no longer than 6 h after withdrawal and then aliquoted into whole blood, plasma and pellet and immediately stored in liquid nitrogen or a -80°C freezer. […] The laboratory is part of the quality control system of the World-Wide Antimalarial Resistance Network (WWARN). The pharmacokinetic analysis for each drug taken separately was performed using the NONMEM computer program Version 6 (NM-TRAN version II). It uses mixed (fixed and random) effects regression to estimate population means and variances of the pharmacokinetic parameters and to identify factors that influence them. One-, two- and three-compartment pharmacokinetic models with first-order absorption, with and without absorption lag times, were compared. Additional one or two-compartments were used for anti-malarials presenting metabolite concentrations (AM and LF). The final parameters estimated were systemic clearance (CL/F), inter-compartmental clearance (Q/F), central volume of distribution (VC/F), peripheral volume of distribution (VP/F) and absorption rate constant (ka). Since no intravenous drug concentration data were available, these parameters represent apparent values. Where available, metabolite data were included into the model and metabolism rate constant from drug compartment to metabolite compartment (k23) and metabolite clearance (CLmet) were also estimated. Owing to identifiability problems, the volume of distribution of the metabolites (VM) DLF and DHA were assumed to equal LF and AM VC, respectively. […] The observed baseline residual plasma concentrations were fitted by estimating a factor (F0) that provided an estimation of the residual doses from previous treatment. […] Proportional and combined proportional-and-additive error models were compared to describe intra-patient (residual) variability for the mother compound, and if available for its metabolite using Cpij(1 + ε1ij) + ε2ij or Cmij(1 + ε3ij) + ε4ij, where Cpij are the corresponding predicted i^th drug plasma concentration and Cmij are the predicted metabolite concentration for the j^th individual, and ε1ij, ε2ij, ε3ij, ε4ij, are independent normally distributed residual error terms with a mean of zero and a variance of σ^2_1, σ^2_2, σ^2_3, σ^2_4. The covariate analysis was performed using a stepwise insertion/deletion approach. […]
# malaria [3] = tested on: malaria; design: method as in earlier work; settings: listed as LF, cited from earlier work
# clinical = settings: human, in vivo
# Description: The second study was conducted during October 2007 to February 2008 at the Phnom Dék Health Centre, Rovieng district, Preah Vihear province, Cambodia. Entry criteria and study procedures were identical as in the Tanzanian study with minor adaptations described below. […] Pregnant or lactating women were excluded. Three doses of AS (Arsumax®, Sanofi-Aventis, France) and MQ (Eloquine®, Medochemie Ltd, Cyprus) were given according to body weight on three consecutive days (see Table 1). Patients were seen by the clinical officer on days 1, 2, 3, 7, 14, 21, 28, 35 and 42. Sampling for the pharmacokinetic study was done at pre-dose and approximately 1 h after first dose intake on day 0, and on days 1, 2, 7 and 14 at pre-defined random times after drug intake.
# Samples of 2 ml of venous blood were collected on an EDTA Vacutainer and kept on ice for no longer than 6 h after withdrawal and then aliquoted into whole blood, plasma and pellet and immediately stored in liquid nitrogen or a –80°C freezer. […] The method was validated according to FDA recommendations, including assessment of extraction yield, matrix effect variability, overall process efficiency, standard addition experiments as well as anti-malarials short- and long-term stability in plasma. […] The laboratory is part of the quality control system of the World-Wide Antimalarial Resistance Network (WWARN).
# The pharmacokinetic analysis for each drug taken separately was performed using the NONMEM computer program Version 6 (NM-TRAN version II). It uses mixed (fixed and random) effects regression to estimate population means and variances of the pharmacokinetic parameters and to identify factors that influence them.
# One-, two- and three-compartment pharmacokinetic models with first-order absorption, with and without absorption lag times, were compared. Additional one or two-compartments were used for anti-malarials presenting metabolite concentrations (AM and LF). The final parameters estimated were systemic clearance (CL/F), inter-compartmental clearance (Q/F), central volume of distribution (VC/F), peripheral volume of distribution (VP/F) and absorption rate constant (ka). Since no intravenous drug concentration data were available, these parameters represent apparent values. Where available, metabolite data were included into the model and metabolism rate constant from drug compartment to metabolite compartment (k23) and metabolite clearance (CLmet) were also estimated. Owing to identifiability problems, the volume of distribution of the metabolites (VM) DLF and DHA were assumed to equal LF and AM VC, respectively. […] The observed baseline residual plasma concentrations were fitted by estimating a factor (F0) that provided an estimation of the residual doses from previous treatment.
# Exponential errors following a log-normal distribution were assumed for the description of inter-patient variability of the pharmacokinetic parameters and were of the form: θi=θ×e^ηj where θi is the individual pharmacokinetic parameter value in the j^th individual, θ is the population parameter estimate, and ηj is the random effect value, which is independently and normally distributed with a mean of 0 and variance ω^2. Proportional and combined proportional-and-additive error models were compared to describe intra-patient (residual) variability for the mother compound, and if available for its metabolite using Cpij(1 + ϵ1ij) + ϵ2ij or Cmij(1 + ϵ3ij) + ϵ4ij, where Cpij are the corresponding predicted i^th drug plasma concentration and Cmij are the predicted metabolite concentration for the j^th individual, and ϵ1ij, ϵ2ij, ϵ3ij, ϵ4ij, are independent normally distributed residual error terms with a mean of zero and a variance of σ^2_1, σ^2_2, σ^2_3, σ^2_4.
# The covariate analysis was performed using a stepwise insertion/deletion approach. […]
# malaria [4] = tested on: malaria; design: method as in PMID 10579474; settings: cited from earlier work
# [5] = patients, age 7.7 ± 1.4 years, n 13, sampling 28 days
# [6] = patients, median age 4.0 (1–10) years, n 50, sampling 72 h
# [7] = patients, median age 20 (5–66) years, n 309
# [8] = patients, median age 22 (14–60) years, n 217
# [9] = patients, median age 23 (13–59) years, n 102
# [10] = pregnant women, median age 24 (15–42) years, n 103, sampling 336 h
# [11] = bootstrap evaluation, 200 replicates
# [12] = patients, median age 9.3 (4–15) years, n 74, sampling 28 days
# [13] = patients, median age 14.8 (8–61) years, n 128, sampling 28 days
# [14] = patients, median age 19 (2–55) years, n 50, sampling 63 days
# [15] = prophylaxis, mean age 26 (18–55) years, n 1,111, sampling 26 weeks
structure (smiles),measurement,setting,value
"CCCCN(CCCC)CC(O)c1cc(Cl)cc2c1-c1ccc(Cl)cc1/C2=C/c1ccc(Cl)cc1 (centres unmarked) [Lumefantrine, lumefantrine]","CL, population estimate for a person of 70 kg",[1]; [5],7.29 L/h
same,"VSS, population estimate for a person of 70 kg",[1]; [5],506 L
same,"CL, population estimate for a person of 70 kg",[1]; [6],5.4 L/h
same,"VSS, population estimate for a person of 70 kg",[1]; [6],623 L
same,"CL, population estimate for a person of 70 kg",[1]; [7],7.6 L/h
same,"VSS, population estimate for a person of 70 kg",[1]; [7],361 L
same,"CL, population estimate for a person of 70 kg",[1]; [8],21 L/h
same,"VSS, population estimate for a person of 70 kg",[1]; [8],301 L
same,"CL, population estimate for a person of 70 kg",[1]; [9],7 L/h
same,"VSS, population estimate for a person of 70 kg",[1]; [9],298 L
same,"CL, population estimate for a person of 70 kg",[1]; [10],8.7 L/h
same,"VSS, population estimate for a person of 70 kg",[1]; [10],257 L
same,patients with a concentration below the cut-off value of 175 ng/ml,"[2]; Tanzanian sample of this study, day 7",35%
same,"F0, bootstrap mean of 200",[2]; [11],2.45 mg
same,"k23, bootstrap mean of 200",[2]; [11],0.00037 h⁻¹
same,"ka, bootstrap mean of 200",[2]; [11],0.48 h⁻¹
same,"θBWCL, bootstrap mean of 200",[2]; [11],0.51
same,"θBWVC, bootstrap mean of 200",[2]; [11],0.34
same,"σC (CV%), bootstrap mean of 200",[2]; [11],61%
same,IIV (inter-individual variability) of CL,[2]; final model,38%
same,IIV (inter-individual variability) of F0,[2]; final model,103%
same,IIV (inter-individual variability) of VC,[2]; final model,33%
same,IIV (inter-individual variability) of k23,[2]; final model,38%
same,"ka (first-order absorption rate constant), population estimate",[2]; final model,0.54 h⁻¹
same,"θBWVC, exponent of allometric power function of body weight on VC, population estimate",[2]; final model,0.35
same,"F0 (residual amount from the previous treatment), population estimate","[2]; final model, baseline",2.53 mg
same,"σC (CV%), residual error for the central compartment, population estimate","[2]; final model, intra-patient variability",60%
same,"k23 (metabolism rate constant), population estimate","[2]; final model, parent to metabolite (AM to DHA, LF to DLF)",0.00037 h⁻¹
same,residual dose (F0) as percentage of the recommended first dose,[2]; first dose 120–480 mg,0.3–1.3%
same,clearance,"[2]; human, plasma, oral, present study, Tanzanian patients, sampling 7 days",128 mL/min
same,Vd,"[2]; human, plasma, oral, present study, Tanzanian patients, sampling 7 days, read-out: VSS (steady-state volume of distribution), population estimate for a person of 70 kg",265 L
same,efficacy rates at 42 days for a day 7 concentration cut-off of 50 ng/ml,malaria [3]; high transmission areas,80% and 95%
same,efficacy rates at 42 days for a day 7 concentration cut-off of 125 ng/ml,malaria [3]; low transmission areas,84% and 96%
"OC(c1cc(C(F)(F)F)nc2c(C(F)(F)F)cccc12)C1CCCCN1 (centres unmarked) [Mefloquine, mefloquine]","CL, population estimate for a person of 70 kg",[1]; [12],3.71 L/h
same,"VSS, population estimate for a person of 70 kg",[1]; [12],"1,089.2 L"
same,"CL, population estimate for a person of 70 kg",[1]; [13],1.4 L/h
same,"VSS, population estimate for a person of 70 kg",[1]; [13],574.7 L
same,"CL, population estimate for a person of 70 kg",[1]; [14],2.1 L/h
same,"VSS, population estimate for a person of 70 kg",[1]; [14],767.62 L
same,"CL, population estimate for a person of 70 kg",[1]; [15],1.75 L/h
same,"VSS, population estimate for a person of 70 kg",[1]; [15],863 L
same,"CL (clearance), population estimate",clinical,0.10 × BW^0.75 L/h/kg
same,"CL, bootstrap mean of 200",clinical,0.10 × BW^0.75 L/h/kg
same,"F0 (residual amount from the previous treatment), population estimate",clinical,33.1 mg
same,"F0, bootstrap mean of 200",clinical,31.0 mg
same,IIV (inter-individual variability) of CL,clinical,12%
same,IIV (inter-individual variability) of F0,clinical,175%
same,IIV (inter-individual variability) of VC,clinical,19%
same,"VC (central volume of distribution), population estimate",clinical,8.93 × BW L/kg
same,"VC, bootstrap mean of 200",clinical,9.01 × BW L/kg
same,Vd,clinical,625 L
same,clearance,clinical,40 mL/min
same,inter-individual variability in concentration exposure,clinical,~12%
same,"ka (first-order absorption rate constant), population estimate",clinical,0.15 h⁻¹
same,"ka, bootstrap mean of 200",clinical,0.15 h⁻¹
same,residual dose (F0) as percentage of an initial dose,clinical,6.7–26.7%
same,"σC, bootstrap mean of 200",clinical,43%
same,"σC, residual error for the central compartment, population estimate",clinical,43%
same,"minimal inhibitory concentration, MIC (drug plasma concentration)",malaria [4],0.5 µg/mL
